# Test results published in patent publication US20210346366A1, “CH24H INHIBITORS FOR PAIN USE” (Takeda Pharmaceutical Company Limited, priority 2018, published 2021).
# Legend:
# [1] = system: mouse model of chronic post-ischemic pain; assay: mouse model of chronic post-ischemic pain (CRPS model), von Frey paw withdraw threshold; type: in vivo; settings: 30 mg/kg orally once daily for 7 days
# Protocol: The following Example provides data from a mouse model of chronic post-ischemic pain, which recapitulates symptoms seen in CRPS patients with peripheral tissue injury and subsequent progression of allodynia. (4-Benzyl-4-hydroxypiperidin-1-yl) (2,4′-bipyridin-3-yl)methanone was tested in the CRPS model for its potential effects on pain. Following 3-hour ischemia and 0.5-hour reperfusion given at a hind limb, mice (C57) were orally treated with (4-benzyl-4-hydroxypiperidin-1-yl) (2,4′-bipyridin-3-yl)methanone at the dose of 30 mg/kg once daily for 7 days (n=8). Paw withdraw threshold was evaluated with von Frey filaments as a behavioral index of mechanical allodynia at 0 h for the base line, 6 h, Days 1, 2, 4 and 7. The cumulative score of paw withdraw threshold over the study period was 17.7 in the sham-treated control group without ischemia/reperfusion injury. In the groups given ischemic injury, the cumulative score was 9.0 and 16.2 for the vehicle control and (4-benzyl-4-hydroxypiperidin-1-yl) (2,4′-bipyridin-3-yl)methanone group, respectively.
# NMDA receptors = settings: read-out: EC50 as positive allosteric modulator of NMDA receptors; cited from earlier work
# [2] = system: rat cortical spreading depression (CSD) model; assay: rat cortical spreading depression (CSD) model, KCl-induced; type: in vivo; settings: female Wistar rats, 10 mg/kg orally once daily for 6 days
# Protocol: The following Example provides data from a rat cortical spreading depression (CSD) model, which recapitulates symptoms seen in migraine patients with aura. (2R)-1-((1-(4-(4-Methyl-1H-pyrazol-1-yl)pyridin-3-yl)piperidin-4-yl)carbonyl)pyrrolidine-2-carbonitrile was tested in the CSD model for its potential effects on hyperperfusion events and cortical direct current (DC)-potentials. Adult female Wistar rats from Charles River Germany were used for the experiment. Animals were housed at a standard temperature (22±1° C.) and in a light-controlled environment (lights on from 7 am to 8 pm) with ad libitum access to food and water. Rats were orally treated with vehicle (0.5% methylcellulose in water) or (2R)-1-((1-(4-(4-methyl-1H-pyrazol-1-yl)pyridin-3-yl)piperidin-4-yl)carbonyl)pyrrolidine-2-carbonitrile at the dose of 10 mg/kg once daily for 6 days (n=8). One hour after the last dosing, rats were anesthetized with 5% isoflurane (in 70% N2O and 30% O2; flow 300 ml/min), and placed in a stereotactic frame.
# During the operation and CSD the concentration of anesthetic was reduced to 1-1.5%. The rectal temperature was maintained at 37.0±1.0° C. with a homeothermic blanket system. The skin was opened by a medial incision and retracted laterally. Three burr holes were drilled under saline cooling over the right hemisphere at the following coordinates (mm from bregma): (1) posterior 4.5, lateral, 2.0 (occipital cortex): KCl application site; (2) posterior 0.5, lateral 2.0 (parietal cortex) (3) anterior 2, lateral 2 (frontal cortex). A laser-Doppler flow probe (Oxyflow, Oxford Optronics, UK) to monitor cerebral blood flow (CBF) was placed in the parietal cortex burr holes on the intact dura. An invasive Ag/AgCl electrode for measuring DC potential shifts was placed in the frontal cortex burr holes on the intact dura. For the DC-potential measurement, a reference electrode was fixed in the neck. […] The number of KCl-induced CSDs was checked over the period of 2 hours and the number of CBF changes was also measured. […]
smiles,measurement,setting,value
"O=C(c1cccnc1-c1ccncc1)N1CCC(O)(Cc2ccccc2)CC1 [(4-benzyl-4-hydroxypiperidin-1-yl) (2,4′-bipyridin-3-yl)methanone]",allodynia threshold (effect of treatment),[1]; C57 mice with ischemic injury,markedly increased
same,cumulative score of paw withdraw threshold over the study period,"[1]; C57 mice, 3-hour ischemia and 0.5-hour reperfusion at a hind limb, von Frey filaments, vehicle 9.0, sham 17.7",16.2
CC(C)[C@@H](O)CC[C@@H](C)[C@H]1CC[C@H]2[C@@H]3CC=C4C[C@@H](O)CC[C@]4(C)[C@H]3CC[C@]12C [24(S)-hydroxycholesterol],EC50,NMDA receptors,1200 nM
Cc1cnn(-c2ccncc2N2CCC(C(=O)N3CCC[C@@H]3C#N)CC2)c1 [(2R)-1-((1-(4-(4-methyl-1H-pyrazol-1-yl)pyridin-3-yl)piperidin-4-yl)carbonyl)pyrrolidine-2-carbonitrile],CSD events (effect of treatment),[2],markedly reduced
same,average number of KCl-induced CSDs,"[2]; counted over 2 hours, vehicle 10.00",4.75
same,average number of CBF changes,"[2]; over 2 hours, vehicle 22.75",15.75
